In patent US10301308B2, “Azetidine derivatives for tau imaging” (Eli Lilly and Company, priority 2015, dated 2019):

Assay: Biodistribution in normal mice (dissection, gamma counting)
Type: in vivo
Conditions: for % dose/g Blood / % dose/g Body leftover / % dose/g Bone / % dose/g Brain / % dose/g Fat / % dose/g Heart / % dose/g Intestine / % dose/g Kidney / % dose/g Liver / % dose/g Lung / % dose/g Muscle / % dose/g Pancreas / % dose/g Skin / % dose/g Spleen / % dose/g Stomach / % dose/g Tail / % dose/g Testes / % dose/g Thyroid / % dose/g Urogenital / % dose/organ Blood / % dose/organ Body leftover / % dose/organ Bone / % dose/organ Brain / % dose/organ Fat / % dose/organ Heart / % dose/organ Intestine / % dose/organ Kidney / % dose/organ Liver / % dose/organ Lung / % dose/organ Muscle / % dose/organ Pancreas / % dose/organ Skin / % dose/organ Spleen / % dose/organ Stomach / % dose/organ Tail / % dose/organ Testes / % dose/organ Thyroid / % dose/organ Urogenital: AVG
Method: While under anesthesia, 0.2 mL of saline solution containing 20 μCi of 3-(3-[18F]-fluoroazetidin-1-yl)-8-methylbenzo[4,5]imidazo[1,2-a]pyridine is injected directly into the tail vein. Three mice are used per time point and sacrificed in a staggered manner. The following organs and fluids are collected: Blood, Spleen, Thyroid, Testes, Heart, Liver, Pancreas, Kidneys, Muscle, Skin, Stomach, Bone, Lungs, Brain, Intestines, Urogenital system. The organs are weighted and the radioactivity of each organ is counted in an Automatic Gamma Counter (Perkin Elmer). For the skin, bone, muscle and blood, a sample is counted and the total weight of the organ or fluid is estimated. A sample of the injected dose is counted as reference. The Percentage Injected Dose per Gram of tissue (% ID/g) is calculated for each organ.

For Cc1ccc2nc3cc(N4CC([18F])C4)ccn3c2c1 [Compound 8, 3-(3-[18F]-fluoroazetidin-1-yl)-8-methylbenzo[4,5]imidazo[1,2-a]pyridine], the “% dose/g Blood” value (2 minutes) was 2.52 % dose/g, the “% dose/g Body leftover” value (2 minutes) was 2.43 % dose/g and the “% dose/g Bone” value (2 minutes) was 1.89 % dose/g. The “% dose/g Brain” value (2 minutes) was 9.53 % dose/g, the “% dose/g Fat” value (2 minutes) was 1.09 % dose/g and the “% dose/g Heart” value (2 minutes) was 4.79 % dose/g. The “% dose/g Intestine” value (2 minutes) was 5.77 % dose/g, the “% dose/g Kidney” value (2 minutes) was 39.08 % dose/g and the “% dose/g Liver” value (2 minutes) was 7.32 % dose/g. The “% dose/g Lung” value (2 minutes) was 26.50 % dose/g, the “% dose/g Muscle” value (2 minutes) was 1.81 % dose/g and the “% dose/g Pancreas” value (2 minutes) was 8.74 % dose/g. The “% dose/g Skin” value (2 minutes) was 0.96 % dose/g, the “% dose/g Spleen” value (2 minutes) was 10.89 % dose/g and the “% dose/g Stomach” value (2 minutes) was 4.14 % dose/g. The “% dose/g Tail” value (2 minutes) was 14.93 % dose/g, the “% dose/g Testes” value (2 minutes) was 1.78 % dose/g and the “% dose/g Thyroid” value (2 minutes) was 6.01 % dose/g. For the same compound, the “% dose/g Urogenital” value (2 minutes) was 4.33 % dose/g, the “% dose/organ Blood” value (2 minutes) was 4.54 % dose/organ and the “% dose/organ Body leftover” value (2 minutes) was 38.48 % dose/organ. For the same compound, the “% dose/organ Bone” value (2 minutes) was 6.87 % dose/organ, the “% dose/organ Brain” value (2 minutes) was 4.42 % dose/organ and the “% dose/organ Fat” value (2 minutes) was 0.27 % dose/organ. For the same compound, the “% dose/organ Heart” value (2 minutes) was 0.72 % dose/organ, the “% dose/organ Intestine” value (2 minutes) was 15.39 % dose/organ and the “% dose/organ Kidney” value (2 minutes) was 15.93 % dose/organ. For the same compound, the “% dose/organ Liver” value (2 minutes) was 11.56 % dose/organ, the “% dose/organ Lung” value (2 minutes) was 5.18 % dose/organ and the “% dose/organ Muscle” value (2 minutes) was 19.01 % dose/organ. For the same compound, the “% dose/organ Pancreas” value (2 minutes) was 1.31 % dose/organ, the “% dose/organ Skin” value (2 minutes) was 3.74 % dose/organ and the “% dose/organ Spleen” value (2 minutes) was 1.00 % dose/organ. For the same compound, the “% dose/organ Stomach” value (2 minutes) was 1.52 % dose/organ, the “% dose/organ Tail” value (2 minutes) was 10.85 % dose/organ and the “% dose/organ Testes” value (2 minutes) was 0.30 % dose/organ. The “% dose/organ Thyroid” value (2 minutes) was 0.10 % dose/organ, the “% dose/organ Urogenital” value (2 minutes) was 0.75 % dose/organ and the “% dose/g Blood” value (30 minutes) was 1.14 % dose/g. For the same compound, the “% dose/g Body leftover” value (30 minutes) was 0.71 % dose/g, the “% dose/g Bone” value (30 minutes) was 0.93 % dose/g and the “% dose/g Brain” value (30 minutes) was 0.39 % dose/g. The “% dose/g Fat” value (30 minutes) was 0.63 % dose/g, the “% dose/g Heart” value (30 minutes) was 0.76 % dose/g and the “% dose/g Intestine” value (30 minutes) was 10.09 % dose/g. The “% dose/g Kidney” value (30 minutes) was 5.98 % dose/g, the “% dose/g Liver” value (30 minutes) was 2.76 % dose/g and the “% dose/g Lung” value (30 minutes) was 5.11 % dose/g. The “% dose/g Muscle” value (30 minutes) was 0.46 % dose/g, the “% dose/g Pancreas” value (30 minutes) was 1.15 % dose/g and the “% dose/g Skin” value (30 minutes) was 0.55 % dose/g. For the same compound, the “% dose/g Spleen” value (30 minutes) was 1.98 % dose/g, the “% dose/g Stomach” value (30 minutes) was 3.10 % dose/g and the “% dose/g Tail” value (30 minutes) was 2.77 % dose/g. For the same compound, the “% dose/g Testes” value (30 minutes) was 1.56 % dose/g, the “% dose/g Thyroid” value (30 minutes) was 0.81 % dose/g and the “% dose/g Urogenital” value (30 minutes) was 22.15 % dose/g. For the same compound, the “% dose/organ Blood” value (30 minutes) was 2.03 % dose/organ, the “% dose/organ Body leftover” value (30 minutes) was 10.62 % dose/organ and the “% dose/organ Bone” value (30 minutes) was 3.31 % dose/organ. The “% dose/organ Brain” value (30 minutes) was 0.17 % dose/organ, the “% dose/organ Fat” value (30 minutes) was 0.21 % dose/organ and the “% dose/organ Heart” value (30 minutes) was 0.11 % dose/organ. For the same compound, the “% dose/organ Intestine” value (30 minutes) was 28.28 % dose/organ, the “% dose/organ Kidney” value (30 minutes) was 2.56 % dose/organ and the “% dose/organ Liver” value (30 minutes) was 4.22 % dose/organ. For the same compound, the “% dose/organ Lung” value (30 minutes) was 0.99 % dose/organ, the “% dose/organ Muscle” value (30 minutes) was 4.68 % dose/organ and the “% dose/organ Pancreas” value (30 minutes) was 0.15 % dose/organ. The “% dose/organ Skin” value (30 minutes) was 2.10 % dose/organ, the “% dose/organ Spleen” value (30 minutes) was 0.19 % dose/organ and the “% dose/organ Stomach” value (30 minutes) was 1.80 % dose/organ. For the same compound, the “% dose/organ Tail” value (30 minutes) was 1.93 % dose/organ, the “% dose/organ Testes” value (30 minutes) was 0.23 % dose/organ and the “% dose/organ Thyroid” value (30 minutes) was 0.01 % dose/organ. For the same compound, the “% dose/organ Urogenital” value (30 minutes) was 3.92 % dose/organ, the “% dose/g Blood” value (60 minutes) was 0.87 % dose/g and the “% dose/g Body leftover” value (60 minutes) was 0.54 % dose/g. The “% dose/g Bone” value (60 minutes) was 0.97 % dose/g, the “% dose/g Brain” value (60 minutes) was 0.26 % dose/g and the “% dose/g Fat” value (60 minutes) was 0.27 % dose/g. The “% dose/g Heart” value (60 minutes) was 0.49 % dose/g, the “% dose/g Intestine” value (60 minutes) was 15.40 % dose/g and the “% dose/g Kidney” value (60 minutes) was 4.32 % dose/g. For the same compound, the “% dose/g Liver” value (60 minutes) was 3.10 % dose/g, the “% dose/g Lung” value (60 minutes) was 4.01 % dose/g and the “% dose/g Muscle” value (60 minutes) was 0.31 % dose/g. The “% dose/g Pancreas” value (60 minutes) was 0.60 % dose/g, the “% dose/g Skin” value (60 minutes) was 0.36 % dose/g and the “% dose/g Spleen” value (60 minutes) was 1.15 % dose/g. The “% dose/g Stomach” value (60 minutes) was 2.78 % dose/g, the “% dose/g Tail” value (60 minutes) was 2.10 % dose/g and the “% dose/g Testes” value (60 minutes) was 0.88 % dose/g. The “% dose/g Thyroid” value (60 minutes) was 0.68 % dose/g, the “% dose/g Urogenital” value (60 minutes) was 13.95 % dose/g and the “% dose/organ Blood” value (60 minutes) was 1.63 % dose/organ. The “% dose/organ Body leftover” value (60 minutes) was 8.64 % dose/organ, the “% dose/organ Bone” value (60 minutes) was 3.62 % dose/organ and the “% dose/organ Brain” value (60 minutes) was 0.09 % dose/organ. For the same compound, the “% dose/organ Fat” value (60 minutes) was 0.12 % dose/organ, the “% dose/organ Heart” value (60 minutes) was 0.08 % dose/organ and the “% dose/organ Intestine” value (60 minutes) was 32.10 % dose/organ. For the same compound, the “% dose/organ Kidney” value (60 minutes) was 1.73 % dose/organ, the “% dose/organ Liver” value (60 minutes) was 4.73 % dose/organ and the “% dose/organ Lung” value (60 minutes) was 0.74 % dose/organ. The “% dose/organ Muscle” value (60 minutes) was 3.30 % dose/organ, the “% dose/organ Pancreas” value (60 minutes) was 0.13 % dose/organ and the “% dose/organ Skin” value (60 minutes) was 1.44 % dose/organ. For the same compound, the “% dose/organ Spleen” value (60 minutes) was 0.12 % dose/organ, the “% dose/organ Stomach” value (60 minutes) was 3.25 % dose/organ and the “% dose/organ Tail” value (60 minutes) was 1.35 % dose/organ. The “% dose/organ Testes” value (60 minutes) was 0.20 % dose/organ, the “% dose/organ Thyroid” value (60 minutes) was 0.11 % dose/organ and the “% dose/organ Urogenital” value (60 minutes) was 3.23 % dose/organ. For the same compound, the “% dose/g Blood” value (120 minutes) was 0.50 % dose/g, the “% dose/g Body leftover” value (120 minutes) was 0.29 % dose/g and the “% dose/g Bone” value (120 minutes) was 0.72 % dose/g. For the same compound, the “% dose/g Brain” value (120 minutes) was 0.23 % dose/g, the “% dose/g Fat” value (120 minutes) was 0.11 % dose/g and the “% dose/g Heart” value (120 minutes) was 0.27 % dose/g. The “% dose/g Intestine” value (120 minutes) was 11.88 % dose/g, the “% dose/g Kidney” value (120 minutes) was 1.19 % dose/g and the “% dose/g Liver” value (120 minutes) was 1.35 % dose/g. The “% dose/g Lung” value (120 minutes) was 2.02 % dose/g, the “% dose/g Muscle” value (120 minutes) was 0.25 % dose/g and the “% dose/g Pancreas” value (120 minutes) was 0.23 % dose/g. The “% dose/g Skin” value (120 minutes) was 0.39 % dose/g, the “% dose/g Spleen” value (120 minutes) was 0.57 % dose/g and the “% dose/g Stomach” value (120 minutes) was 0.81 % dose/g. The “% dose/g Tail” value (120 minutes) was 0.84 % dose/g, the “% dose/g Testes” value (120 minutes) was 0.31 % dose/g and the “% dose/g Thyroid” value (120 minutes) was 0.60 % dose/g. The “% dose/g Urogenital” value (120 minutes) was 30.39 % dose/g, the “% dose/organ Blood” value (120 minutes) was 0.89 % dose/organ and the “% dose/organ Body leftover” value (120 minutes) was 4.42 % dose/organ. The “% dose/organ Bone” value (120 minutes) was 2.50 % dose/organ, the “% dose/organ Brain” value (120 minutes) was 0.11 % dose/organ and the “% dose/organ Fat” value (120 minutes) was 0.03 % dose/organ. The “% dose/organ Heart” value (120 minutes) was 0.04 % dose/organ, the “% dose/organ Intestine” value (120 minutes) was 32.80 % dose/organ and the “% dose/organ Kidney” value (120 minutes) was 0.44 % dose/organ. For the same compound, the “% dose/organ Liver” value (120 minutes) was 1.86 % dose/organ, the “% dose/organ Lung” value (120 minutes) was 0.37 % dose/organ and the “% dose/organ Muscle” value (120 minutes) was 2.51 % dose/organ. The “% dose/organ Pancreas” value (120 minutes) was 0.03 % dose/organ, the “% dose/organ Skin” value (120 minutes) was 1.46 % dose/organ and the “% dose/organ Spleen” value (120 minutes) was 0.05 % dose/organ. The “% dose/organ Stomach” value (120 minutes) was 0.45 % dose/organ, the “% dose/organ Tail” value (120 minutes) was 0.61 % dose/organ and the “% dose/organ Testes” value (120 minutes) was 0.05 % dose/organ. The “% dose/organ Thyroid” value (120 minutes) was 0.06 % dose/organ, the “% dose/organ Urogenital” value (120 minutes) was 6.52 % dose/organ and the “clearance from the brain, remaining level” value (before the 30 min point) was “less than 10 % of the peak”. For the same compound, the “de-fluorination (radioactivity in bone tissue)” value (first two hours) was “do not undergo de-fluorination” and the “uptake by the muscle” value (over the study period) was “under 2 % ID/g”.
